Experimental data reported in patent US9012497B2, “Cyclohexyl carbamate compounds as active anti-cellulite ingredients” (Symrise AG, priority 2010, dated 2015).
pEC50, pIC50: −log10 of the molar value.

What was measured:
[1] = test system: 3T3-L1 cells; assay: Adipogenesis assay (in vitro), Nile Red lipid staining; type: cell-based; conditions: Mus musculus, mean values of at least 2 independent tests, read-out: Adipogenesis inhibition IC50
Protocol: 3T3-L1 cells (mouse embryonic fibroblast-like adipocyte cell line) are seeded in a 48-well plate with collagen I-coating in a concentration of 3×10^4 cells/well. After 72 h cultivation at 37° C. and 5% CO2 in DMEM (Dulbecco's Modified Eagle Medium), enriched with 10% calf serum, various concentrations of the test substances in DMEM, enriched with 10% foetal calf serum and to which are added 1 μg/ml insulin, 0.25 μM dexamethasone and 0.5 mM IBMX (3-isobutyl-1-methylxanthine), are added and incubated for a further 48 h. A media change takes place, in that DMEM, enriched with 10% foetal calf serum and with 1 μg/ml insulin added, are applied. After renewed cultivation for 48 h, a further media change takes place, in which DMEM, enriched with 10% foetal calf serum, is applied.
After a further incubation for 72 h, the intracellularly stored lipids are quantified as a measure for the differentiation of the cells by measuring the fluorescence after staining of the lipids with the fluorescent dye Nile Red.
The inhibition of the adipogenesis in the presence of the test substances is calculated according to the following equation:
[formula] wherein RFU test substance=relative fluorescent units of the wells with test substance and with cells RFU control=relative fluorescent units of the wells without test substance, but with cells RFU control without cells=relative fluorescent units of the wells without test substance and without cells The IC50 is calculated from the adipogenesis inhibition [%] in a series of dilutions of tested samples. This is the concentration at which the adipogenesis is 50% inhibited.

[2] = test system: 3T3-L1 cells; assay: Lipolysis assay, in vitro on 3T3-L1 cells, free glycerol release; type: cell-based; conditions: Mus musculus; differentiated 3T3-L1 cells, about 20 hours of incubation; mean values from at least 2 independent tests; read-out: Stimulation of lipolysis EC50
Protocol: 3T3-L1 cells (mouse embryonic fibroblast-like adipocyte cell line) are seeded in a 48-well plate with collagen I-coating in a concentration of 3×10^4 cells/well. The cultivation and differentiation of the cells takes place analogously to the details in Example 2 (adipogenesis assay).
Various concentrations of the test substances are applied to the cells in DMEM, with bovine serum albumen added. After about 20 hours of incubation, the quantification of free glycerol in the supernatant of the cells takes place, which is released by the cells after hydrolysis of triglycerides in the cells and is a measure of the lipolysis of the cells. The quantification of the free glycerol is carried out based on an enzymatic method with a free glycerol reagent.
(§1) The stimulation of the lipolysis in the presence of test substances is calculated according to the following equation:
[formula] wherein A test substance=absorption of the wells with test substance and with cells A test substance without cells=absorption of the wells with test substance without cells (absorption control) A control=absorption of the wells without test substance, but with cells A control without cells=absorption of the wells without test substance and without cells
The EC50 is calculated from the lipolysis stimulation [%] in a series of dilutions of tested samples. This is the concentration at which the lipolysis is 50% stimulated.

[3] = test system: ex vivo pig skin model including subcutis fat layer; assay: Lipolysis assay, ex vivo pig skin model, free glycerol release; type: cell-based; conditions: conc. 0.1% in cosmetic test preparation, topical on ex vivo pig skin, 24 hours, versus placebo
From the text: Full thickness pig skin patches (pig skin model including subcutis fat layer as described in EP 1 939 279) are excised from the dorsal part of young pig slaughtered for meat. The ex vivo pig skin models have a size of 7×3 mm (diameter×height). They are placed on a titanium grid dipped in culture medium. On top of the skin samples formulations are applied. In parallel to a cosmetic test preparation containing one or more compounds of formula (I) a placebo preparation without any compound of formula (I) is applied as reference (blank).
After 24 hours of incubation, the quantification of free glycerol in the medium surrounding the pig skin models was performed. The glycerol is released by the cells after hydrolysis of triglycerides in the cells of the adipose tissue and is a measure of the lipolysis of the pig skin models. The quantification of the free glycerol is carried out based on an enzymatic method with a free glycerol reagent.
Cosmetic Test Preparation:
Phases A and B are heated to 70° C. separately. Pemulen TR1 as well as Ultrez-21 are dispersed in phase B when heated to 70° C. Phase B/C is added to phase A by mixing with an Ultra Turrax, followed by emulsifying. Phase D is slowly added to phase A/B/C using a paddle mixer and a pH 5.5-6 is adjusted. The formulation is cooled down while mixing with a paddle mixer. Phase E is prepared by dissolving one or more compounds of formula (I) in Hydrolite-5. Subsequently, phase E is added to the mixture of phase A-D.
as §1
[formula] wherein A test substance=absorption of the wells with medium of ex vivo skin models, on which the formulation containing the test substance was applied A placebo=absorption of the wells with medium of ex vivo skin models, on which the placebo without test substance was applied

[4] = test system: 3T3 cells; assay: ATP assay, inhibition of proliferation; type: cell-based; conditions: Mus musculus, NIH3T3, 48 h, non-cytotoxic dilutions, mean values of at least 2 independent tests
Protocol: 3T3 cells (mouse […] fibroblasts) were seeded in 96-well plates. After 24 h cultivation at 37° C. and 5% CO2 in DMEM (Dulbecco's Modified Eagle Medium), cells were treated with test substances for another 48 h. […] ATP content in the cells is measured by
The inhibition of proliferation was calculated by:
[formula] wherein RLU test substance=relative luminescent units of the wells with test substance and with cells RLU control=relative luminescent units of the wells without test substance, but with cells RLU control without cells=relative luminescent units of the wells without test substance and without cells
The IC50 is calculated from the proliferation inhibition [%] in a series of non-cytotoxic dilutions of tested samples. This is the concentration at which the proliferation is 50% inhibited.

[5] = target: T1, pancreatic lipase (PL) (Sus scrofa, UniProt P00591); assay: Inhibition of PL, MUF oleate hydrolysis; type: biochemical; conditions: mean values of at least 2 independent tests
T1 construct: purchased Sigma-Aldrich
T1 sequence (P00591 1-450): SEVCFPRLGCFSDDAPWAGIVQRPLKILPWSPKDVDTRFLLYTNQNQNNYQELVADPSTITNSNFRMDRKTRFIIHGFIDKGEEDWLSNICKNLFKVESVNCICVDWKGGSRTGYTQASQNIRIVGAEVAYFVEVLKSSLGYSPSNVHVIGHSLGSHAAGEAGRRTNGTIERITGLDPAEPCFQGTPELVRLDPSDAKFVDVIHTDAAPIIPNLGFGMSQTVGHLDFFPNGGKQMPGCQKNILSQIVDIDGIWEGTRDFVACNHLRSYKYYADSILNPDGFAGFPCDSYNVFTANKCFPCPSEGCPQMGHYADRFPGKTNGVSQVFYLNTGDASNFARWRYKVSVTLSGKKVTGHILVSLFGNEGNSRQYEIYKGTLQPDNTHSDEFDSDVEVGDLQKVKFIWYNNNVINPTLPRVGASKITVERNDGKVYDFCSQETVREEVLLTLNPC
From the text: (§2) Lipogenesis is perceived as the storage of triglycerides in adipocytes. The inhibition of this storage can take place by means of the inhibition of the activity of extracellular lipoprotein lipase (LPL) in that the hydrolysis of extracellular triglycerides and therefore the absorption of free fatty acids by adipocytes are reduced. As a preliminary test, the inhibition of pancreatic lipase (PL) is investigated.
PL (Sigma-Aldrich), in the presence of test substances in different use concentrations has methylumbelliferyl oleate (MUF oleate) added as a substrate. Fluorescent methylumelliferon (MUF), is produced by hydrolysis of the MUF oleate by PL and is quantified. The inhibition of the hydrolysis of the MUF oleate is a measure of the inhibition of activity of the PL.
[formula] wherein MUF test substance=MUF concentration of the wells with test substance and with PL MUF control=MUF concentration of the wells without test substance, but with PL MUF control without PL=MUF concentration of the wells without test substance and without PL
The IC50 is calculated from the inhibition of the PL [%] in a series of dilutions of tested samples. This is the concentration, at which the activity of the PL is 50% inhibited.

[6] = target: T2, lipoprotein lipase (LPL) (Mus musculus, UniProt P11152); assay: Inhibition of LPL (lipogenesis assay), MUF oleate hydrolysis; type: biochemical; conditions: LPL obtained from differentiated 3T3-L1 cells; mean values of at least 2 independent tests
T2 construct: endogenous in cells; host or cells: differentiated 3T3-L1 cells (mouse); heparin-released supernatant
T2 sequence (P11152 28-474): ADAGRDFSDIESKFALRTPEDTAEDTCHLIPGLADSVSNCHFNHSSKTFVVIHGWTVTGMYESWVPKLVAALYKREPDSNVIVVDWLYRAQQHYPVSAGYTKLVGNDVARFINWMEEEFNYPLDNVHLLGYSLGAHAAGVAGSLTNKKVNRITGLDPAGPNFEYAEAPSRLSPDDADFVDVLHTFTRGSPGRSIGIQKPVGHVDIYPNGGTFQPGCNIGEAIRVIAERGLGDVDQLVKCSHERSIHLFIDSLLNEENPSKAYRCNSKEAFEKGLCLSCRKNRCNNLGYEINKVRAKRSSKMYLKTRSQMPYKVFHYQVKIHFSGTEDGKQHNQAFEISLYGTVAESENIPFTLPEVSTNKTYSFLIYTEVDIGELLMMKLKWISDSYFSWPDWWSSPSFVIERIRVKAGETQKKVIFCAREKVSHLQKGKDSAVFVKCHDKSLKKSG
From the text: as §2
The results of the inhibition of the PL are used as a preliminary test and are confirmed on LPL. To obtain LPL, 3T3-L1 cells (mouse embryonic fibroblast-like adipocyte cell line) are seeded in a 6-well plate with collagen I-coating in a concentration of 3×10^5 cells/well. The cultivation and differentiation of the cells takes place analogously to the details in Example 2 (adipogenesis assay). During the differentiation LPL is increasingly expressed. The LPL is present in a membrane-bound state and is released by one hour incubation with heparin solution at 2-8° C. to the supernatant of the cells.
The LPL thus obtained, in the presence of test substances in different use concentrations, has methylumbelliferyl oleate (MUF oleate) added as the substrate. Fluorescent methylumbelliferyl (MUF) is produced by hydrolysis of the MUF oleate by LPL and is quantified. The inhibition of the hydrolysis of the MUF oleate is a measure of the inhibition of the activity of the LPL and therefore the lipogenesis.
[formula] wherein MUF test substance=MUF concentration of the wells with test substance and with LPL MUF control=MUF concentration of the wells without test substance, but with LPL MUF control without LPL=MUF concentration of the wells without test substance and without LPL
The IC50 is calculated from the inhibition of the LPL [%] in a series of dilutions of tested samples. This is the concentration at which the activity of the LPL and therefore the lipogenesis is 50% inhibited.

Compound	pIC50 [1]	pEC50 [2]	Stimulation of lipolysis [3]	pIC50 [4]	pIC50 [5]	pIC50 [6]
CCc1ccc(NC(=O)OC2CC(C)CC(C)C2)cc1 (centres unmarked) [BIO1823, (4-Ethyl-phenyl)-carbamic acid 3,5-dimethyl-cyclohexyl ester]	4.21	3.34	28%	2.86	–	–
CCC(C)NC(=O)OC1CC(C)CC(C)(C)C1 (centres unmarked) [BIO1844, sec-Butyl-carbamic acid 3,3,5-trimethyl-cyclohexyl ester]	4.05	3.68	–	3.32	3.46	3.14
CCCCNC(=O)OC1CC(C)CC(C)(C)C1 (centres unmarked) [BIO1616, Butyl-carbamic acid 3,3,5-trimethyl-cyclohexyl ester]	3.92	3.35	–	3.66	3.05	2.99
